These results are taken from patent publication US11564964B2, “Compositions and methods for the treatment of coronavirus infection” (priority 2021, dated 2023).

≈ marks a conversion by molar mass, not a printed value.

In data set [1] the test system is SARS-CoV-2 (hCoV-19/Egypt/NRC-3/2020 isolate). As to conditions: for in vitro SARS-CoV-2 testing (activity in words): SARS CoV-2 infected Vero E6 cells; for activity against SARS CoV-2 (in words): (100 μg/mL).
Data set [2] in a line: MTT cytotoxicity assay. It is filed as cell-based. To be noted: African green monkey, Vero E6 cells, read-out: cytotoxicity IC50 against Vero E6 cells. The procedure: Vero-E6 cells with the previously reported (MTT) method^34 were used to test the cytotoxic activity of the test compounds and extracts. In brief, the cells were plated in 96-well plates and incubated for 24 h at 37° C. in 5% CO2 (100 μL/well at a density of 3×10^5 cells/mL). The cells were then treated with different concentrations of extracts/the tested compounds in triplicates. The supernatant was discarded after another 24 h, and cell monolayers were washed three times with sterile 1× PBS. MTT solution was added to each well and then incubated at 37° C. for 4 h. The produced formazan crystals were dissolved with 200 μL of acidified isopropanol (0.04 M HCl in absolute isopropanol=0.073 mL HCL in 50 mL isopropanol). Thereafter, the absorbance of formazan solutions was measured at λmax 540 nm using a multi-well plate reader. The following equation was applied to calculate the percentage of cytotoxicity compared to the untreated cells:
[formula] The produced plot of % cytotoxicity versus sample concentrations was then used to calculate the IC50s. Viral Inhibitory Concentration 50 (IC50) Determination
For orientation: Tetrazolium assays rely on reduction of a dye to a coloured formazan, in cell work by metabolically active cells.

The test system of data set [3] is SARS-CoV-2 (hCoV-19/Egypt/NRC-3/2020 isolate). Description: microbe, parasite or virus in culture. To be noted: Severe acute respiratory syndrome coronavirus 2, Vero C1008, read-out: IC50, inhibition of SARS CoV-2 viral replication.
Data set [4] deals with SARS-CoV-2 mRNA. Nature of the data set: Quantitative real time measurement of SARS-CoV-2 mRNA expression (TaqMan RT-PCR) in infected Vero E6 cells. The class given is cell-based. As to conditions: different concentrations, 24 h and 48 h post treatment, normalized to infected untreated cells. How it is done:
The RNA extraction of expressed SARS-CoV-2 mRNA in infected treated and untreated cell monolayers was performed using QlAamp Viral RNA Mini Kit according to manufacturer instructions. To assess the viral mRNA expression in infected/treated and infected/untreated Vero E6 cells, TaqMan Real-time RT-PCR assay was performed. Briefly, 100 ng of extracted RNA were mixed with TaqMan primers to quantify SARS-CoV-2 mRNA (targeting […]: HKU-ORF1b-nsp14F: 5′-[…]-3′ (SEQ ID NO: 1), HKU-ORF1b-nsp141P Taqman Probe: 5′-FAM-[…]-TAMRA-3′ (SEQ ID NO: 2), HKU-ORF1b-nsp14R: 5′-[…]-3′ (SEQ ID NO: 3) together with the other components of Verso 1-step RT-qPCR Kit plus Rox (Invitrogen) in recommended volumes (up to 50 μl reaction) and thermal protocol conditions.
To validate our in silico-derived hits, we evaluated their antiviral activity against the clinical SARS-CoV-2 viral isolate in Vero E6 cells. […] Afterwards, the SARS CoV-2 infected Vero E6 cells were incubated with each of the tested compounds at different concentrations. The antiviral activity was then evaluated by determining the viral copy numbers in the cell supernatant via qRT-PCR. […] The poor antiviral activity of other metabolites (>100 μg/mL) might be attributed to their high polarity that could hinder the permeability across the cell membrane^39.
Background: Real-time PCR tracks product formation cycle by cycle.

Turning to `O=c1cc(-c2ccc(O)cc2)oc2cc(O[C@@H]3O[C@H](CO)[C@@H](O)[C@H](O)[C@H]3O)cc(O)c12` [apigenin 7-O-glucoside], the “in vitro SARS-CoV-2 testing (activity in words)” value (shortened to “in vitro SARS-CoV-2 testing”) in data set [1] is “inactive”.
Broadly, the IC50 is the concentration that gives 50% inhibition. `COc1ccc(C[C@H]2COC(=O)[C@@H]2Cc2ccc(O[C@@H]3O[C@H](CO)[C@@H](O)[C@H](O)[C@H]3O)c(OC)c2)cc1OC` [arctiin]: in data set [2], the IC50 at 24 h is > 50 µg/mL. The “in vitro SARS-CoV-2 testing” value in data set [1] is “inactive”.
In the same order, the values of `O=c1c(O[C@@H]2O[C@H](CO)[C@@H](O)[C@H](O)[C@H]2O)c(-c2ccc(O)cc2)oc2cc(O)cc(O)c12` [astragalin] are > 50 µg/mL and “inactive”.
With `C=C1C(=O)O[C@@H]2/C=C(\CO)CC/C=C(\C)C[C@H](OC(=O)C(=C)[C@@H](O)CO)[C@@H]12` [cnicin], the IC50 in data set [3] turned out to be 1.18 µg/mL (≈ 3.12 µM). For the same compound, the “inhibitory effect on the viral mRNA” value in data set [4] is on record as “significant viral mRNA inhibition”. The “Si=CC50/IC50” value in data set [1] (safety profile, Vero E6 / SARS CoV-2) was 70.3.
`O=c1cc(-c2ccc(O)c(O)c2)oc2cc(O)cc(O)c12` [luteolin]: the “activity against SARS CoV-2 (in words)” value in data set [1] is “inactive”.
Consider `COc1cc(C[C@H]2COC(=O)[C@]2(O)Cc2ccc(O[C@@H]3O[C@H](CO)[C@@H](O)[C@H](O)[C@H]3O)c(OC)c2)ccc1O` [nortracheloside], for which the “in vitro SARS-CoV-2 testing” value in data set [1] is “inactive”.
In the case of `CC[C@H](CC[C@@H](C)[C@H]1CC[C@H]2[C@@H]3CC=C4C[C@@H](O[C@@H]5O[C@H](CO)[C@@H](O)[C@H](O)[C@H]5O)CC[C@]4(C)[C@H]3CC[C@]12C)C(C)C` [sitogluside], the “activity against SARS CoV-2 (in words)” value in data set [1] was “inactive”.
